Source: ChEMBL document CHEMBL1909046, “DrugMatrix in vitro pharmacology data”
*1 amine or outer side, *2 acyl side, *3 side chain or, on linkers, in order; H or OH if unused. Where a SMILES comes first, the peptide text is derived from it. Bridges are numbered along the chain shown (N, C = ends). Roman numbers before positions name the chains, in order. [ ]: non-standard residue; d: D form. Actinocin(1to9) = Cc1c2oc3c(C)ccc(C(=O)[*:2])c3nc-2c(C(=O)[*:1])c(N)c1=O; NMeV = CN[C@H](C(=O)O)C(C)C; Sar = CNCC(=O)O

Key:
[1] = target: T1, Neuropeptide Y receptor type 2 (Homo sapiens, UniProt P49146); type: cell membranes, Membrane; details: kan-ts; note: in other assays of this panel Not Active means under 50% inhibition at 10 µM
T1 sequence (P49146 whole entry): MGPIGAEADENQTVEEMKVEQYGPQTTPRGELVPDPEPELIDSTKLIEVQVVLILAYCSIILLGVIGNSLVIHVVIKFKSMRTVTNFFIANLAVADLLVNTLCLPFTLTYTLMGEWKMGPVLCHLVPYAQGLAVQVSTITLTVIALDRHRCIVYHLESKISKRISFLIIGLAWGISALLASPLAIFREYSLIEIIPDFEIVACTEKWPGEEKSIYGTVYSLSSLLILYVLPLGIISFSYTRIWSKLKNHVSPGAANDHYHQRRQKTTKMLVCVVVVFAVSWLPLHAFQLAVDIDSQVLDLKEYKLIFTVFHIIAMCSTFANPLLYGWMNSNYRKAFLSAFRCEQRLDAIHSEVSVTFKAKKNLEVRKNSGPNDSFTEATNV

[2] = DRUGMATRIX: Glutamate, NMDA, Phencyclidine radioligand binding (ligand: [3H] TCP); type: cell membranes, Rattus norvegicus, Wistar, Cerebral cortex, Membrane; details: Not Active = under 50% inhibition at 10 µM
[3] = DRUGMATRIX: ATPase, Na+/K+ enzyme inhibition (substrate: ATP); type: tissue-based, Sus scrofa, Heart; details: Not Active = under 50% inhibition at 10 µM
Interstitial collagenase = target: T2, Interstitial collagenase (Homo sapiens, UniProt P03956); assay: biochemical; type: tissue-based, Rheumatoid synovial fibroblasts;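 note: MMP-1 enzyme inhibition assay using a peptide substrate; in other assays of this panel Not Active means under 50% inhibition at 10 µM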
T2 sequence (P03956 whole entry): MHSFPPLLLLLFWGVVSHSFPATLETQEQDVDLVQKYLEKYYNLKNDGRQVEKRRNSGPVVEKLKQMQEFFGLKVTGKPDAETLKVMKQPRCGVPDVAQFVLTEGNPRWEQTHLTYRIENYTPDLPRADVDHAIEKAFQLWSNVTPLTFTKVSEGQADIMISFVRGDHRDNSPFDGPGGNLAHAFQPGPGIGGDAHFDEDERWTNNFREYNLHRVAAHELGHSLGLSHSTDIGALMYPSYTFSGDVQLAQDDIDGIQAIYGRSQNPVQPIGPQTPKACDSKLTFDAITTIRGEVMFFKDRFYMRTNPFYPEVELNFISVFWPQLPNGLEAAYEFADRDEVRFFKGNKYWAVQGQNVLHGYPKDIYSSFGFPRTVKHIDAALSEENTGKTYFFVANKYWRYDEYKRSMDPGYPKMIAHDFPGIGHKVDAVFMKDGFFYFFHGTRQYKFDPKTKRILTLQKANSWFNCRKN

[4] = DRUGMATRIX: Sodium/nucleoside co-transporter radioligand binding (ligand: nitrobenzylthioinosine); type: cell membranes, Cavia porcellus, Dunkin-Hartley, Cerebral cortex, Membrane; details: Not Active = under 50% inhibition at 10 µM
[5] = DRUGMATRIX: Leukotriene, BLT (LTB4) radioligand binding (ligand: [3H]LTB4); type: cell membranes, Membrane; details: u-937; Not Active = under 50% inhibition at 10 µM
Cathepsin G = target: T3, Cathepsin G (Homo sapiens, UniProt P08311); type: tissue-based; details: neutrophil;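 note: inhibition of Cathepsin G enzyme activity, tested on an AMC-conjugated peptide substrate; in other assays of this panel Not Active means under 50% inhibition at 10 µM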
T3 sequence (P08311 whole entry): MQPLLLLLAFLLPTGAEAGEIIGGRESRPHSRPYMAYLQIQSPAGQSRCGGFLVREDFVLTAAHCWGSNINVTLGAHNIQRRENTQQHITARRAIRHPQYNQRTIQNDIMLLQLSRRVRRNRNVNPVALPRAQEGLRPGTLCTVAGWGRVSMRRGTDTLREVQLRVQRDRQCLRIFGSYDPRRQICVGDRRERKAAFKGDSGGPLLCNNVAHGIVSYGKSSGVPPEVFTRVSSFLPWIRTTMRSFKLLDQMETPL

Cc1cc(C2CCCCC2)n(O)c(=O)c1 [CICLOPIROX]
IC50 [1]: Not Active
IC50 [2]: Not Active
Ki [2]: Not Active
IC50 [3]: Not Active
Ki [3]: Not Active
IC50 (Interstitial collagenase): Not Active
IC50 [4]: Not Active
Ki [4]: Not Active
IC50 [5]: Not Active
Ki [5]: Not Active
IC50 (Cathepsin G): Not Active

CC1=C2C(=CO[C@H](C)[C@H]2C)C(O)=C(C(=O)O)C1=O [CITRININ]
IC50 [1]: Not Active
IC50 [2]: Not Active
Ki [2]: Not Active
IC50 [3]: Not Active
Ki [3]: Not Active
IC50 (Interstitial collagenase): Not Active
IC50 [4]: Not Active
Ki [4]: Not Active
IC50 [5]: Not Active
Ki [5]: Not Active
IC50 (Cathepsin G): Not Active

CC(C)(C)NCC(O)c1cc(Cl)c(N)c(Cl)c1 (stereo not given) [CLENBUTEROL]
IC50 [1]: Not Active
IC50 [2]: Not Active
Ki [2]: Not Active
IC50 [3]: Not Active
Ki [3]: Not Active
IC50 (Interstitial collagenase): Not Active
IC50 [4]: Not Active
Ki [4]: Not Active
IC50 [5]: Not Active
Ki [5]: Not Active
IC50 (Cathepsin G): Not Active

CC(C)(Oc1ccc(Cl)cc1)C(=O)O [CLOFIBRIC ACID]
IC50 [1]: Not Active
IC50 [2]: Not Active
Ki [2]: Not Active
IC50 [3]: Not Active
Ki [3]: Not Active
IC50 (Interstitial collagenase): Not Active
IC50 [4]: Not Active
Ki [4]: Not Active
IC50 [5]: Not Active
Ki [5]: Not Active
IC50 (Cathepsin G): Not Active

Clc1cccc(Cl)c1NC1=NCCN1 [CLONIDINE]
IC50 [1]: Not Active
IC50 [2]: Not Active
Ki [2]: Not Active
IC50 [3]: Not Active
Ki [3]: Not Active
IC50 (Interstitial collagenase): Not Active
IC50 [4]: Not Active
Ki [4]: Not Active
IC50 [5]: Not Active
Ki [5]: Not Active
IC50 (Cathepsin G): Not Active

Cc1cc(C(C#N)c2ccc(Cl)cc2)c(Cl)cc1NC(=O)c1cc(I)cc(I)c1O (stereo not given) [CLOSANTEL]
IC50 [1]: Not Active
IC50 [2]: Not Active
Ki [2]: Not Active
IC50 ([3]; read-out: IC50): 4.88 µM
IC50 (Interstitial collagenase): Not Active
IC50 [4]: Not Active
Ki [4]: Not Active
IC50 [5]: Not Active
Ki [5]: Not Active
IC50 (Cathepsin G): Not Active

Cc1onc(-c2ccccc2Cl)c1C(=O)N[C@@H]1C(=O)N2[C@@H]1SC(C)(C)[C@@H]2C(=O)O [CLOXACILLIN]
IC50 [1]: Not Active
IC50 [2]: Not Active
Ki [2]: Not Active
IC50 [3]: Not Active
Ki [3]: Not Active
IC50 (Interstitial collagenase): Not Active
IC50 [4]: Not Active
Ki [4]: Not Active
IC50 [5]: Not Active
Ki [5]: Not Active
IC50 (Cathepsin G): Not Active

CC1CC(OC(=O)C(O)c2ccccc2)CC(C)(C)C1 (stereo not given) [CYCLANDELATE]
IC50 [1]: Not Active
IC50 [2]: Not Active
Ki [2]: Not Active
IC50 [3]: Not Active
Ki [3]: Not Active
IC50 (Interstitial collagenase): Not Active
IC50 [4]: Not Active
Ki [4]: Not Active
IC50 [5]: Not Active
Ki [5]: Not Active
IC50 (Cathepsin G): Not Active

Cc1c2oc3c(C)ccc(C(=O)N[C@@H]4C(=O)N[C@H](C(C)C)C(=O)N5CCC[C@H]5C(=O)N(C)CC(=O)N(C)[C@@H](C(C)C)C(=O)O[C@@H]4C)c3nc-2c(C(=O)N[C@@H]2C(=O)N[C@H](C(C)C)C(=O)N3CCC[C@H]3C(=O)N(C)CC(=O)N(C)[C@@H](C(C)C)C(=O)O[C@@H]2C)c(N)c1=O [DACTINOMYCIN] (I: T[dV]P[Sar][NMeV] / II: T[dV]P[Sar][NMeV]; ester I:1-I:C, II:1-II:C; linker I:N-II:N via Actinocin(1to9))
IC50 [1]: Not Active
IC50 [2]: Not Active
Ki [2]: Not Active
IC50 [3]: Not Active
Ki [3]: Not Active
IC50 (Interstitial collagenase): Not Active
IC50 [4]: Not Active
Ki [4]: Not Active
IC50 [5]: Not Active
Ki [5]: Not Active
IC50 (Cathepsin G): Not Active

Cc1c(O)c(=O)ccn1C [DEFERIPRONE]
IC50 [1]: Not Active
IC50 [2]: Not Active
Ki [2]: Not Active
IC50 [3]: Not Active
Ki [3]: Not Active
IC50 (Interstitial collagenase): Not Active
IC50 [4]: Not Active
Ki [4]: Not Active
IC50 [5]: Not Active
Ki [5]: Not Active
IC50 (Cathepsin G): Not Active

CNCCCN1c2ccccc2CCc2ccccc21 [DESIPRAMINE]
IC50 [1]: Not Active
IC50 [2]: Not Active
Ki [2]: Not Active
IC50 [3]: Not Active
Ki [3]: Not Active
IC50 (Interstitial collagenase): Not Active
IC50 [4]: Not Active
Ki [4]: Not Active
IC50 [5]: Not Active
Ki [5]: Not Active
IC50 (Cathepsin G): Not Active
